Reference: ChEMBL document CHEMBL1201862, “PubChem BioAssay data set” (2004)
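All cell lines were grown in 96-well plates and treated with compound for 48 hours. The concentration for 50% growth inhibition is given as GI50.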 Calls of active or inactive are those of the source. No stated cut-off is given here; in the data, active = GI50 up to about 1.1 µM and inactive = higher.

Key:
Test in all cases: growth of human tumour cells (NCI), 48 h
786-0 = system: 786-0
A498 = system: A498
A549 = system: A549
ACHN = system: ACHN
BT-549 = system: BT-549
CAKI-1 = system: CAKI-1
CCRF-CEM = system: CCRF-CEM
COLO 205 = system: COLO 205
DLD-1 = system: DLD-1
DMS-114 = system: DMS-114
DMS-273 = system: DMS-273
DU-145 = system: DU-145
EKVX = system: EKVX
HCC 2998 = system: HCC 2998
HCT-116 = system: HCT-116
HCT-15 = system: HCT-15
HL-60 = system: HL-60
HOP-92 = system: HOP-92
HT-29 = system: HT-29
Hs-578T = system: Hs-578T
K562 = system: K562
KM-20L2 = system: KM-20L2
KM12 = system: KM12
LOX IMVI = system: LOX IMVI
LXFL 529 = system: LXFL 529
M14 = system: M14
M19-MEL = system: M19-MEL
MCF7 = system: MCF7
MDA-MB-231 = system: MDA-MB-231
MDA-MB-435 = system: MDA-MB-435
MDA-N = system: MDA-N
MOLT-4 = system: MOLT-4
Malme-3M = system: Malme-3M
NCI-H23 = system: NCI-H23
NCI-H460 = system: NCI-H460
NCI-H522 = system: NCI-H522
NCI/ADR-RES = system: NCI/ADR-RES
OVCAR-3 = system: OVCAR-3
OVCAR-4 = system: OVCAR-4
OVCAR-5 = system: OVCAR-5
OVCAR-8 = system: OVCAR-8
PC-3 = system: PC-3
RPMI-8226 = system: RPMI-8226
RXF 393 = system: RXF 393
SF-268 = system: SF-268
SF-295 = system: SF-295
SF-539 = system: SF-539
SK-MEL-28 = system: SK-MEL-28
SK-MEL-2 = system: SK-MEL-2
SK-MEL-5 = system: SK-MEL-5
SK-OV-3 = system: SK-OV-3
SN12C = system: SN12C
SNB-19 = system: SNB-19
SNB-75 = system: SNB-75
SNB-78 = system: SNB-78
SR = system: SR
SW-620 = system: SW-620
T47D = system: T47D
TK-10 = system: TK-10
U-251 = system: U-251
UACC-257 = system: UACC-257
UACC-62 = system: UACC-62
UO-31 = system: UO-31
XF498 = system: XF498
HOP-62 = system: HOP-62
NCI-H226 = system: NCI-H226

SMILES: COc1cccc2c1C(CO)N1C(C#N)C3CC(C(=O)O)C(C1C2)N3C (stereo unspecified)
- GI50 (786-0): 1.3 µM (inactive)
- GI50 (A498): 2.77 µM (inactive)
- GI50 (A549): 7.52 µM (inactive)
- GI50 (ACHN): 3.36 µM (inactive)
- GI50 (BT-549): 0.213 µM (active)
- GI50 (CAKI-1): 1.29 µM (inactive)
- GI50 (CCRF-CEM): 1.1 µM (active)
- GI50 (COLO 205): 1.26 µM (inactive)
- GI50 (DLD-1): 2.79 µM (inactive)
- GI50 (DMS-114): 2.21 µM (inactive)
- GI50 (DMS-273): 2.77 µM (inactive)
- GI50 (DU-145): 0.481 µM (active)
- GI50 (EKVX): 6.19 µM (inactive)
- GI50 (HCC 2998): 0.405 µM (active)
- GI50 (HCT-116): 1.69 µM (inactive)
- GI50 (HCT-15): 1.43 µM
- GI50 (HL-60): 1.52 µM (inactive)
- GI50 (HOP-92): 1.99 µM (inactive)
- GI50 (HT-29): 1.64 µM (inactive)
- GI50 (Hs-578T): 0.238 µM (active)
- GI50 (K562): 1.63 µM (inactive)
- GI50 (KM-20L2): 3.33 µM (inactive)
- GI50 (KM12): 1.98 µM (inactive)
- GI50 (LOX IMVI): 1.95 µM (inactive)
- GI50 (LXFL 529): 2.56 µM (inactive)
- GI50 (M14): 4.37 µM (inactive)
- GI50 (M19-MEL): 3.54 µM (inactive)
- GI50 (MCF7): 0.272 µM (active)
- GI50 (MDA-MB-231): 0.15 µM (active)
- GI50 (MDA-MB-435): 0.349 µM (active)
- GI50 (MDA-N): 0.273 µM (active)
- GI50 (MOLT-4): 1.48 µM (inactive)
- GI50 (Malme-3M): 1.92 µM (inactive)
- GI50 (NCI-H23): 1.57 µM (inactive)
- GI50 (NCI-H460): 5.19 µM (inactive)
- GI50 (NCI-H522): 0.0615 µM (active)
- GI50 (NCI/ADR-RES): 0.367 µM (active)
- GI50 (OVCAR-3): 1.23 µM (inactive)
- GI50 (OVCAR-4): 4.91 µM (inactive)
- GI50 (OVCAR-5): 2.85 µM (inactive)
- GI50 (OVCAR-8): 1.68 µM (inactive)
- GI50 (PC-3): 0.331 µM (active)
- GI50 (RPMI-8226): 1.15 µM (inactive)
- GI50 (RXF 393): 1.27 µM (inactive)
- GI50 (SF-268): 1.85 µM (inactive)
- GI50 (SF-295): 4.7 µM (inactive)
- GI50 (SF-539): 1.41 µM (inactive)
- GI50 (SK-MEL-28): 1.56 µM (inactive)
- GI50 (SK-MEL-2): 1.21 µM (inactive)
- GI50 (SK-MEL-5): 1.69 µM (inactive)
- GI50 (SK-OV-3): 3.6 µM (inactive)
- GI50 (SN12C): 1.64 µM (inactive)
- GI50 (SNB-19): 2.62 µM (inactive)
- GI50 (SNB-75): 1.6 µM (inactive)
- GI50 (SNB-78): 2.81 µM (inactive)
- GI50 (SR): 2.08 µM (inactive)
- GI50 (SW-620): 2.71 µM (inactive)
- GI50 (T47D): 0.324 µM (active)
- GI50 (TK-10): 2.11 µM (inactive)
- GI50 (U-251): 1.52 µM (inactive)
- GI50 (UACC-257): 1.66 µM (inactive)
- GI50 (UACC-62): 1.16 µM (inactive)
- GI50 (UO-31): 1.59 µM (inactive)
- GI50 (XF498): 1.61 µM (inactive)

SMILES: CC(C)OP(=O)(OC(C)C)/C(Cl)=N/Nc1ccc([N+](=O)[O-])cc1
- GI50 (786-0): > 100 µM (inactive)
- GI50 (A498): 24 µM (inactive)
- GI50 (A549): > 100 µM (inactive)
- GI50 (ACHN): > 100 µM (inactive)
- GI50 (CAKI-1): 97.3 µM (inactive)
- GI50 (CCRF-CEM): 59 µM (inactive)
- GI50 (COLO 205): > 100 µM (inactive)
- GI50 (DLD-1): > 100 µM (inactive)
- GI50 (DMS-114): 81.8 µM (inactive)
- GI50 (DMS-273): > 100 µM (inactive)
- GI50 (EKVX): > 100 µM (inactive)
- GI50 (HCC 2998): > 100 µM (inactive)
- GI50 (HCT-116): > 100 µM (inactive)
- GI50 (HCT-15): > 100 µM
- GI50 (HL-60): 43.7 µM (inactive)
- GI50 (HOP-62): > 100 µM (inactive)
- GI50 (HOP-92): 44.9 µM (inactive)
- GI50 (K562): 38.7 µM (inactive)
- GI50 (KM-20L2): 50.8 µM (inactive)
- GI50 (KM12): > 100 µM (inactive)
- GI50 (LOX IMVI): 44.9 µM (inactive)
- GI50 (LXFL 529): 34.7 µM (inactive)
- GI50 (M14): > 100 µM (inactive)
- GI50 (M19-MEL): > 100 µM (inactive)
- GI50 (MOLT-4): 53.6 µM (inactive)
- GI50 (Malme-3M): > 100 µM (inactive)
- GI50 (NCI-H226): 0.778 µM (active)
- GI50 (NCI-H23): > 100 µM (inactive)
- GI50 (NCI-H460): > 100 µM (inactive)
- GI50 (NCI-H522): > 100 µM (inactive)
- GI50 (OVCAR-3): > 100 µM (inactive)
- GI50 (OVCAR-4): > 100 µM (inactive)
- GI50 (OVCAR-5): > 100 µM (inactive)
- GI50 (OVCAR-8): > 100 µM (inactive)
- GI50 (RPMI-8226): > 100 µM (inactive)
- GI50 (SF-268): > 100 µM (inactive)
- GI50 (SF-539): > 100 µM (inactive)
- GI50 (SK-MEL-28): > 100 µM (inactive)
- GI50 (SK-MEL-2): > 100 µM (inactive)
- GI50 (SK-MEL-5): > 100 µM (inactive)
- GI50 (SN12C): > 100 µM (inactive)
- GI50 (SNB-19): > 100 µM (inactive)
- GI50 (SNB-75): > 100 µM (inactive)
- GI50 (SNB-78): 80.4 µM (inactive)
- GI50 (SR): 92.3 µM (inactive)
- GI50 (SW-620): > 100 µM (inactive)
- GI50 (TK-10): > 100 µM (inactive)
- GI50 (U-251): > 100 µM (inactive)
- GI50 (UACC-257): > 100 µM (inactive)
- GI50 (UACC-62): 44.8 µM (inactive)
- GI50 (UO-31): > 100 µM (inactive)
- GI50 (XF498): > 100 µM (inactive)
